Laboratory results published in paper PMC3817308, “Metal-sensitive and thermostable trypsin from the crevalle jack (Caranx hippos) pyloric caeca: purification and characterization” (Chemistry Central Journal, 2013).

Test system: T1, trypsin from crevalle jack (Caranx hippos) pyloric caeca
T1 construct: gene trypsin-like enzyme; native, purified from pyloric caeca (heat, ammonium sulfate, Sephadex G-75); mature N-terminus IVGGFECTPHVFAYQ
Assay: p-nitroaniline release at […] nm, Michaelis-Menten fit
Type: biochemical
Settings: 0.1 M Tris-HCl pH 8.0; 0.02-2.4 mM BApNA

Km: 689 ± 50 µM
Structure (SMILES): NC(N)=NCCCC(NC(=O)c1ccccc1)C(=O)Nc1ccc([N+](=O)[O-])cc1 (racemic) [BApNA, N-α-benzoyl-DL-arginine-p-nitroanilide]
